Article PMC10400562, “Label-free measurement of antimicrobial peptide interactions with lipid vesicles and nanodiscs using microscale thermophoresis” (Scientific Reports, 2023)
Where two headings read alike, the source gives them in different places. Non-standard residues stand in square brackets, D forms with d. Residues, ends and D or L forms follow the SMILES beside them.

Assay: Label-free MST, peptide binding to SMA nanodiscs
Settings: for Kd: label-free MST, SMA nanodiscs (anionic belt), 2500 nM AMP, apparent KD dominated by interaction with SMA polymer, mean ± SD of triplicates; for SMA KP, DMPC (MST) / SMA KP, DMPC/PG (MST): partition coefficient from initial fluorescence on MST instrument, SMA nanodiscs, hyperbolic fit, ± SD of triplicate fits
Experimental: The MST data for two nanodisc types, SMA and SMA-QA, were evaluated using the same methodology as the vesicle data, with FHot taken during the TRIC, and Fnorm plotted against log[lipid] and fit to Eq. (6).
The DMPC, and DMPC with 5% DMPG 21 mM vesicle stocks were used for the nanodisc preparation. The stocks were combined with an 8% SMA stock solution to yield a final SMA concentration of 1% for SMA nanodiscs. The stocks were combined with a 100 mg/mL SMA-QA stock to yield a final lipid:SMA-QA w/w ratio of 1:1.5. The combined SMA/SMA-QA and lipid mixture were incubated at room temperature overnight and purified by SEC. Fractions containing SMA/SMA-QA discs were concentrated using centrifugation filters. Total lipid concentration was determined by ^31P NMR (Figs. S4–S7). Nanodisc size was confirmed using a Malvern Zetasizer Nano ZS (Malvern Panalytical Ltd, Malvern, United Kingdom).
All MST measurements were conducted on a NanoTemper Monolith NT. Labelfree instrument, using Monolith NT. Labelfree standard treated zero background capillaries.
A dilution series of vesicles/nanodiscs was prepared from 3 mM to 100 nM lipid concentrations, comprising 15 discrete samples, and an additional zero lipid sample, for a total of 16 lipid concentrations. Final MST samples were prepared as a combination of 25 µL lipid solution and 25 µL 5 µM peptide solution (Table S1 in the Supporting Information).
MST measurements were conducted with excitation power set to 15%, with the MST power set to high. Laser time settings were: 3 s pre-laser, 30 s on time, and 3 s after heating. FHot was taken from the T-jump period after 1.5 s and FCold taken in the second prior to IR laser activation. For the evaluation of KP, the initial fluorescence was taken as the value reported during the period before the application of the laser. The MST response and initial fluorescence were extracted directly as a text file for further processing in MATLAB.
In a typical binding experiment that yields a sigmoidal curve, the Hill equation can be fitted to yield KD:[66]6 y=y0+EMaxLipid^n/KDn+Lipid^n where y is the MST response, y0 is the MST response of the AMP in an aqueous solution (i.e., in the absence of lipids), n is the Hill coefficient, and EMax is the maximal effect of the tested substrate. The removal of outlying MST response points was necessary. Erroneous points were identified by poor MST trace shapes or higher than expected initial fluorescence that was absent in the other replicates or subsequent points, but otherwise no further treatment of data was necessary. In all instances the MST response was plotted against log lipid concentration in nM and fit to Eq. (6).
The Kp of a molecule can be determined experimentally by observing changes in fluorescent intensity in the presence of an increasing concentration of lipid, and fitting to Eq. (8)[43].8 I/Iaq=1+KpVmLipidIL/Iaq/1+KPVmLipid
In Eq. (8) the fluorescence intensity of the AMP (I) is normalised to the fluorescence intensity of the AMP in an aqueous environment (Iaq), Vm is the molar volume of the lipids and IL is the fluorescence intensity of the AMP in the lipidic environment. For Vm, the average molar volume of the lipid composition is used. In the case of the DMPC only environments it is taken as the Vm of DMPC (1.023 nm^3), and in the DMPC-DMPG mixture it is the weighted average relative to the composition used (Vm DMPG = 0.997 nm^3)[54].

[1] = read-out: SMA KD, DMPC/PG (MST)

| Compound | Kd (read-out: SMA KD, DMPC (MST)) [µM] | Kd [1] [µM] | SMA KP, DMPC (MST) | SMA KP, DMPC/PG (MST) |
| --- | --- | --- | --- | --- |
| N=C(N)NCCC[C@@H]1NC(=O)[C@H](CCCNC(=N)N)NC(=O)[C@H](Cc2c[nH]c3ccccc23)NC(=O)[C@H](Cc2c[nH]c3ccccc23)NC(=O)[C@H](Cc2c[nH]c3ccccc23)NC(=O)[C@H](CCCNC(=N)N)NC1=O [compound 1] (cyclo(WWWRRR)) | 1.2 ± 0.5 | 2.2 ± 0.4 | 10.40 ± 1.52 × 10^3 | 10.27 ± 2.13 × 10^3 |
| N=C(N)NCCC[C@@H]1NC(=O)[C@H](Cc2c[nH]c3ccccc23)NC(=O)[C@H](CCCNC(=N)N)NC(=O)[C@H](Cc2c[nH]c3ccccc23)NC(=O)[C@H](CCCNC(=N)N)NC(=O)[C@H](Cc2c[nH]c3ccccc23)NC1=O [compound 2] (cyclo(WRWRWR)) | 2.7 ± 0.5 | 5.6 ± 1.1 | 9.72 ± 2.69 × 10^3 | 3.57 ± 0.36 × 10^3 |
| NCCCC[C@@H]1NC(=O)[C@H](CCCCN)NC(=O)[C@H](Cc2c[nH]c3ccccc23)NC(=O)[C@H](Cc2c[nH]c3ccccc23)NC(=O)[C@H](Cc2c[nH]c3ccccc23)NC(=O)[C@H](CCCCN)NC1=O [compound 3] (cyclo(WWWKKK)) | 1.1 ± 0.3 | 1.1 ± 0.5 | 2.34 ± 1.40 × 10^3 | 4.21 ± 0.43 × 10^3 |
| NCCCC[C@@H]1NC(=O)[C@H](Cc2c[nH]c3ccccc23)NC(=O)[C@H](CCCCN)NC(=O)[C@H](Cc2c[nH]c3ccccc23)NC(=O)[C@H](CCCCN)NC(=O)[C@H](Cc2c[nH]c3ccccc23)NC1=O [compound 4] (cyclo(WKWKWK)) | 8.6 ± 0.5 | 9.8 ± 0.3 | 0.70 ± 0.11 × 10^3 | 1.14 ± 0.12 × 10^3 |
| CC(C)C[C@@H]1NC(=O)[C@@H](CCCNC(=N)N)NC(=O)[C@H](CCCCN)NC(=O)[C@H](CC(N)=O)NC(=O)[C@@H](Cc2c[nH]c3ccccc23)NC(=O)[C@H](Cc2c[nH]c3ccccc23)NC1=O [compound 5] (cyclo(LW[dW]NK[dR])) |  |  | 6.98 ± 1.24 × 10^3 | 4.75 ± 0.32 × 10^3 |
